Reference: patent US9420787B2, “Method for controlling noxious organisms” (SUMITOMO CHEMICAL COMPANY, LIMITED, priority 2012, dated 2016)

Columns and labels:
Type in all cases: in vivo
Ivyleaf morningglory [1] = assay: Herbicidal effect in pots sown with ethaboxam-treated soybean seeds, PPO inhibitor sprayed on soil (Example 1); settings: soybean pot, day 7 after sowing, scale 0 to 100
Method: In a plastic cup of 100 mm in inside diameter and 40 mm in height, 10.5 mg of an ethaboxam suspension (a suspension containing 34.6% of ethaboxam, manufactured by Valent USA Corp.) and 40 soybean seeds were placed. The plastic cup was shaken by the hand so that the ethaboxam suspension was attached to the soybean seeds. The weight of 40 soybean seeds was 12.1 g, and the amount of ethaboxam by the above treatment was calculated as 30 g per 100 kg of the soybean seeds. In the same manner, 104.9 mg of the ethaboxam suspension was attached to 40 soybean seeds. The weight of 40 soybean seeds was 12.1 g, and the amount of ethaboxam by the above treatment was calculated as 300 g per 100 kg of the soybean seeds. A soil was packed in a plastic pot of 120 mm in inside diameter×80 mm in height. The above treated soybean seeds were sown in this pot at a rate of two seeds per pot, and the seeds of ivyleaf morningglory were sown at a rate of four seeds per pot. On the day of sowing the soybean seeds and after sowing the soybean seeds, an aqueous diluted solution (113 mg of active ingredient/L or 225 mg of active ingredient/L) of a flumioxazin granular wettable powder (a granular wettable powder containing 51% of flumioxazin, trade name: Valor SX, manufactured by Valent USA), an aqueous diluted solution (226 mg of active ingredient/L or 1130 mg of active ingredient/L) of a sulfentrazone granular wettable powder (a granular wettable powder containing 75% of sulfentrazone, trade name: Cover, manufactured by DuPont), or an aqueous diluted solution (113 mg/L or 226 mg/L) of saflufenacil was uniformly sprayed on the soil surface with a sprayer so as to apply the amount described in Tables 1 to 3. […] On day 7 after sowing the seeds of soybean and ivyleaf morningglory, the herbicidal effect was investigated.

Ivyleaf morningglory [2] = assay: Herbicidal effect in pots sown with ethaboxam-treated cotton seeds, PPO inhibitor sprayed on soil (Example 3); settings: cotton pot, day 7 after sowing, scale 0 to 100
Method: In a plastic cup of 100 mm in inside diameter and 40 mm in height, 5.7 mg of an ethaboxam suspension (a suspension containing 34.6% of ethaboxam, manufactured by Valent USA Corp.) and 40 cotton seeds were placed. The plastic cup was shaken by the hand so that the ethaboxam suspension was attached to the cotton seeds. The weight of 40 cotton seeds was 6.6 g, and the amount of ethaboxam by the above treatment was calculated as 30 g per 100 kg of the cotton seeds. In the same manner, 56.7 mg of the ethaboxam suspension was attached to 40 cotton seeds. The weight of 40 cotton seeds was 6.55 g, and the amount of ethaboxam by the above treatment was calculated as 300 g per 100 kg of the cotton seeds. A soil was packed in a plastic pot of 120 mm in inside diameter×80 mm in height. The above cotton seeds were sown in this pot at a rate of two seeds per pot, and the seeds of ivyleaf morningglory were sown at a rate of four seeds per pot. On the day of sowing the cottonseeds and after sowing the cotton seeds, an aqueous diluted solution (113 mg of active ingredient/L or 225 mg of active ingredient/L) of a flumioxazin granular wettable powder (a granular wettable powder containing 51% of flumioxazin, trade name: Valor SX, manufactured by Valent USA), an aqueous diluted solution (226 mg of active ingredient/L or 1130 mg of active ingredient/L) of a sulfentrazone granular wettable powder (a granular wettable powder containing 75% of sulfentrazone, trade name: Cover, manufactured by DuPont), or an aqueous diluted solution (113 mg/L or 226 mg/L) of saflufenacil was uniformly sprayed on the soil surface with a sprayer so as to apply the amount described in Tables 7 to 9. […] On day 7 after sowing the seeds of cotton and ivyleaf morningglory, the herbicidal effect was investigated.

Ivyleaf morningglory [3] = assay: Herbicidal effect in pots sown with ethaboxam-treated corn seeds, PPO inhibitor sprayed on soil (Example 2); settings: corn pot, day 7 after sowing, scale 0 to 100
Method: In a plastic cup of 100 mm in inside diameter and 40 mm in height, 13.4 mg of an ethaboxam suspension (a suspension containing 34. 6% of ethaboxam, manufactured by Valent USA Corp.) and 40 corn seeds were placed. The plastic cup was shaken by the hand so that the ethaboxam suspension was attached to the corn seeds. The weight of 40 corn seeds was 15.5 g, and the amount of ethaboxam by the above treatment was calculated as 30 g per 100 kg of the corn seeds. In the same manner, 138.7 mg of the ethaboxam suspension was attached to 40 corn seeds. The weight of 40 corn seeds was 16.0 g, and the amount of ethaboxam by the above treatment was calculated as 300 g per 100 kg of the corn seeds. A soil was packed in a plastic pot of 120 mm in inside diameter×80 mm in height. The above treated corn seeds were sown in this pot at a rate of two seeds per pot, and the seeds of ivyleaf morningglory were sown at a rate of four seeds per pot. On the day of sowing the corn seeds and after sowing the corn seeds, an aqueous diluted solution (113 mg of active ingredient/L or 225 mg of active ingredient/L) of a flumioxazin granular wettable powder (a granular wettable powder containing 51% of flumioxazin, trade name: Valor SX, manufactured by Valent USA), an aqueous diluted solution (226 mg of active ingredient/L or 1130 mg of active ingredient/L) of a sulfentrazone granular wettable powder (a granular wettable powder containing 75% of sulfentrazone, trade name: Cover, manufactured by DuPont), or an aqueous diluted solution (113 mg/L or 226 mg/L) of saflufenacil was uniformly sprayed on the soil surface with a sprayer so as to apply the amount described in Tables 4 to 6. […] On day 7 after sowing the seeds of corn and ivyleaf morningglory, the herbicidal effect was investigated.

[4] = ethaboxam 30 g/100 kg of seeds, no PPO inhibitor
[5] = ethaboxam 300 g/100 kg of seeds, no PPO inhibitor
[6] = no ethaboxam, saflufenacil 100 g/ha
[7] = no ethaboxam, sulfentrazone 500 g/ha
[8] = no ethaboxam, flumioxazin 100 g/ha

Compound: CCNc1nc(CC)c(C(=O)NC(C#N)c2cccs2)s1 (centres unmarked) [ethaboxam]
- Herbicidal effect Ivyleaf morningglory (Ivyleaf morningglory [1]; [4]): 0
- Herbicidal effect Ivyleaf morningglory (Ivyleaf morningglory [1]; [5]): 0
- Herbicidal effect Ivyleaf morningglory (Ivyleaf morningglory [2]; [4]): 0
- Herbicidal effect Ivyleaf morningglory (Ivyleaf morningglory [2]; [5]): 0
- Herbicidal effect Ivyleaf morningglory (Ivyleaf morningglory [3]; [4]): 0
- Herbicidal effect Ivyleaf morningglory (Ivyleaf morningglory [3]; [5]): 0

Compound: CC(C)N(C)S(=O)(=O)NC(=O)c1cc(-n2c(=O)cc(C(F)(F)F)n(C)c2=O)c(F)cc1Cl [saflufenacil]
- Herbicidal effect Ivyleaf morningglory (Ivyleaf morningglory [1]; [6]): 50
- Herbicidal effect Ivyleaf morningglory (Ivyleaf morningglory [2]; no ethaboxam, saflufenacil 50 g/ha): 20
- Herbicidal effect Ivyleaf morningglory (Ivyleaf morningglory [2]; [6]): 70

Compound: Cc1nn(-c2cc(NS(C)(=O)=O)c(Cl)cc2Cl)c(=O)n1C(F)F [sulfentrazone]
- Herbicidal effect Ivyleaf morningglory (Ivyleaf morningglory [2]; [7]): 40
- Herbicidal effect Ivyleaf morningglory (Ivyleaf morningglory [3]; no ethaboxam, sulfentrazone 100 g/ha): 30
- Herbicidal effect Ivyleaf morningglory (Ivyleaf morningglory [3]; [7]): 70

Compound: C#CCN1C(=O)COc2cc(F)c(N3C(=O)C4=C(CCCC4)C3=O)cc21 [flumioxazin]
- Herbicidal effect Ivyleaf morningglory (Ivyleaf morningglory [2]; [8]): 30
- Herbicidal effect Ivyleaf morningglory (Ivyleaf morningglory [3]; [8]): 30
